Measurements as given in the supplement of paper PMC4932681.
Counter-ions that a name gives are not always drawn.

Columns and labels:
Experiment in all cases: viability inhibition at highest dose (% inhibition); higher = more growth inhibition
ZR-75-1 Tam1 = conditions: 4-OH-tamoxifen in medium 1 µM; 72 h
How it was run: (§1)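 Drug sensitivity score, relative IC50 as the curve midpoint, and top-dose inhibition were derived from logistic dose–response fits in the Breeze pipeline. These fits used CellTiter-Glo viability, read on a PHERAstar and normalised to vehicle-only and positive controls. Breast cancer cell lines and resistant derivatives had been incubated for 72 h at 37 °C in 384-well plates holding library drugs at five concentrations spanning a 10 000-fold range. Resistant lines were grown in medium with 1 μM of the selecting drug.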

T-47D = conditions: 72 h
How it was run: as §1

BT-474 = conditions: 72 h
How it was run: as §1

T-47D Tam2 = conditions: 4-OH-tamoxifen in medium 1 µM; 72 h
How it was run: as §1

ZR-75-1 Tam2 = conditions: 4-OH-tamoxifen in medium 1 µM; 72 h
How it was run: as §1

T-47D Tam1 = conditions: 4-OH-tamoxifen in medium 1 µM; 72 h
How it was run: as §1

BT-474 Tam1 = conditions: 4-OH-tamoxifen in medium 1 µM; 72 h
How it was run: as §1

MCF-7 = conditions: 72 h
How it was run: as §1

MCF-7 Tam1 = conditions: 4-OH-tamoxifen in medium 1 µM; 72 h
How it was run: as §1

BT-474 Tam2 = conditions: 4-OH-tamoxifen in medium 1 µM; 72 h
How it was run: as §1

ZR-75-1 = conditions: 72 h
How it was run: as §1

SMILES | viability inhibition at highest dose (ZR-75-1 Tam1) | viability inhibition at highest dose (T-47D; 4-OH-tamoxifen in medium 0 µM) | viability inhibition at highest dose (T-47D; 4-OH-tamoxifen in medium 1 µM) | viability inhibition at highest dose (BT-474; 4-OH-tamoxifen in medium 0 µM) | viability inhibition at highest dose (BT-474; 4-OH-tamoxifen in medium 1 µM) | viability inhibition at highest dose (T-47D Tam2) | viability inhibition at highest dose (ZR-75-1 Tam2) | viability inhibition at highest dose (T-47D Tam1) | viability inhibition at highest dose (BT-474 Tam1) | viability inhibition at highest dose (MCF-7; 4-OH-tamoxifen in medium 0 µM) | viability inhibition at highest dose (MCF-7; 4-OH-tamoxifen in medium 1 µM) | viability inhibition at highest dose (MCF-7 Tam1) | viability inhibition at highest dose (BT-474 Tam2) | viability inhibition at highest dose (ZR-75-1; 4-OH-tamoxifen in medium 0 µM) | viability inhibition at highest dose (ZR-75-1; 4-OH-tamoxifen in medium 1 µM)
NCC(=O)CCC(=O)O [Aminolevulinic acid] (drug 10000 nM) | -7.01 | -13.1 | -10.6 | -15.6 | -12.3 | 5.5 | -5.25 | -0.747 | 4.33 | -30.6 | 7.57 | -9.27 | -2.75 | -15.3 | -7.45
CC(=O)O[C@@]12CO[C@@H]1C[C@H](O)[C@@]1(C)C(=O)[C@H](O)C3=C(C)[C@@H](OC(=O)[C@H](O)[C@@H](NC(=O)OC(C)(C)C)c4ccccc4)C[C@@](O)([C@@H](OC(=O)c4ccccc4)[C@H]21)C3(C)C [Docetaxel] (drug 1000 nM) | 6.28 | 44.4 | 8.26 | 45.8 | 62.5 | 37.3 | 1.01 | 27.5 | 38.1 | 31.6 | 24.3 | -2.6 | 13.4 | -2.11 | 1.03
O=C(CCCCCCC(=O)Nc1ccccc1)NO [Vorinostat] (drug 10000 nM) | 38.9 | 87.5 | 88.9 | 76.5 | 92.9 | 41.9 | 37.8 | 58.5 | 91.2 | 83.5 | 80.9 | 23.1 | 86.8 | 37.5 | 32.9
COc1cc2nccc(Oc3ccc(NC(=O)Nc4cc(C)on4)c(Cl)c3)c2cc1OC [Tivozanib  (AV-951)] (drug 10000 nM) | 3.78 | 22.3 | 19.7 | 31.9 | 75.6 | 22.1 | 11.2 | 23.7 | 71.8 | 24.5 | 23.7 | 13.2 | 43.4 | 13.6 | 4.79
COc1cccc2c1C(=O)c1c(O)c3c(c(O)c1C2=O)C[C@@](O)(C(C)=O)C[C@@H]3O[C@H]1C[C@H](N)[C@H](O)[C@H](C)O1 [Daunorubicin] (drug 1000 nM) | 64.3 | 72.4 | 73.5 | 53.8 | 95.4 | 68.4 | 70.7 | 67.9 | 72.8 | 78.9 | 87.8 | 32.2 | 32.7 | 63.6 | 55.3
CCN(CC)CCOc1ccc(C(=C(Cl)c2ccccc2)c2ccccc2)cc1 [Clomifene citrate] (drug 10000 nM) | 24.1 | 21.6 | 26.1 | 85.5 | 84 | 48.9 | 42.3 | 40.8 | 86.8 | 12.8 | 85.5 | 57.7 | 97.3 | 23.4 | 36.7
O=P1(NCCCl)OCCCN1CCCl (stereo not given) [Ifosfamide] (drug 10000 nM) | 2.45 | -16.4 | -8.32 | -8.04 | 1.1 | 1.35 | -4.83 | -0.131 | 2.59 | -17.9 | 17.3 | -4.9 | -0.857 | -8.49 | -7.06
c1cc(CN2CCCNCCNCCCNCC2)ccc1CN1CCCNCCNCCCNCC1 [Plerixafor] (drug 2500 nM) | 1.99 | -9.65 | -11.9 | 4.13 | -27.6 | 1.1 | 4.58 | 2.69 | 3.09 | -2.68 | 1.01 | -8.37 | 1.19 | -5.05 | 1.12
C=CC[C@@H]1/C=C(\C)C[C@H](C)C[C@H](OC)[C@H]2O[C@@](O)(C(=O)C(=O)N3CCCC[C@H]3C(=O)O[C@H](/C(C)=C/[C@@H]3CC[C@@H](O)[C@H](OC)C3)[C@H](C)[C@@H](O)CC1=O)[C@H](C)C[C@@H]2OC [Tacrolimus (FK 506)] (drug 10000 nM) | 15.5 | 5.71 | 3.68 | 8.63 | 39.4 | 23.9 | 11.5 | 27.2 | 46.6 | 25.3 | 37.4 | 18.8 | 35 | -3.64 | 16
Nc1ccn([C@@H]2O[C@H](CO)[C@@H](O)C2(F)F)c(=O)n1 [Gemcitabine] (drug 1000 nM) | 9.23 | 32.3 | 7.44 | -11.7 | -4.83 | 21.5 | 11.2 | 25.9 | 1.24 | 25.8 | 4.61 | -2.89 | -10.3 | 16.9 | 19.4
O=P(O)(O)C(O)(Cn1ccnc1)P(=O)(O)O [Zoledronic acid] (drug 10000 nM) | -0.251 | -11.4 | -6.56 | -0.0303 | -3.42 | 1.06 | -9.06 | -5.82 | 2.75 | -12.6 | -12.2 | -6.7 | -6.19 | -6.71 | -4.06
NC(=O)NO [Hydroxyurea] (drug 100000 nM) | 2.07 | -10.4 | 7.44 | -6.12 | 14.5 | 1.81 | -8.32 | -2.99 | 6.52 | -13.2 | 12.6 | 1.25 | 5.16 | -5.61 | 3.11
CCOc1cc2ncc(C#N)c(Nc3ccc(OCc4ccccn4)c(Cl)c3)c2cc1NC(=O)/C=C/CN(C)C [Neratinib] (drug 1000 nM) | 2.29 | 19 | 1.93 | 83.2 | 95 | 32.5 | 9.49 | 32.5 | 97.4 | -5.52 | 24.9 | 8.88 | 97.1 | -13 | 9.01
C=C1C[C@@H]2[C@H](CC[C@]3(C)C(=O)CC[C@@H]23)[C@@]2(C)C=CC(=O)C=C12 [Exemestane] (drug 10000 nM) | 4.25 | -12.5 | -2.8 | 0.814 | 0.09 | 19.2 | -3.66 | 2.32 | 0.0289 | 19.4 | 7.88 | 3.68 | -0.955 | -15.1 | -6.66
NC(=O)c1cccc2cn(-c3ccc([C@@H]4CCCNC4)cc3)nc12 [MK-4827] (drug 10000 nM) | 2.04 | 20.9 | -1.38 | -13.3 | -7.59 | 14.2 | 9.71 | 1.65 | 42.3 | 12.1 | 16.4 | -3.14 | 21.1 | 11.6 | 8.9
Nc1ccccc1NC(=O)c1ccc(CNc2nccc(-c3cccnc3)n2)cc1 [Mocetotinostat (MGCD0103)] (drug 10000 nM) | 27.6 | 81.2 | 73.8 | 65.7 | 94.3 | 41.7 | 31 | 52.9 | 95.4 | 80.1 | 62.7 | 15.4 | 83.4 | 32.8 | 23.3
CN1CCc2c(c3ccccc3n2Cc2ccc(C(=O)NO)cc2)C1 [Tubastatin A] (drug 10000 nM) | 16.1 | 2.46 | 1.6 | 8.77 | 28.9 | 11.4 | 12.3 | 0.672 | 36.4 | 10.2 | 17.2 | 2.15 | 12.3 | 17.4 | 18.8
N#Cc1ccc(C(c2ccc(C#N)cc2)n2cncn2)cc1 [Letrozole] (drug 10000 nM) | -0.517 | -9.48 | 0.428 | -5.7 | -8.86 | 6.57 | -2.74 | -0.0184 | -6.74 | -10.7 | -14.2 | -6.5 | -3.68 | -2.82 | -9.49
COc1cc([C@@H]2c3cc4c(cc3[C@@H](O[C@@H]3O[C@@H]5CO[C@@H](c6cccs6)O[C@H]5[C@H](O)[C@H]3O)[C@H]3COC(=O)[C@H]23)OCO4)cc(OC)c1O [Teniposide] (drug 10000 nM) | 37 | 54.1 | 36.5 | 54.2 | 87.3 | 46.3 | 42.4 | 78.3 | 62.6 | 55.1 | 28 | 18 | 13.2 | 43.9 | 35.7
NCCCNCCSP(=O)(O)O [Amifostine] (drug 10000 nM) | 1.78 | -8.52 | -1.52 | -2.99 | 1.56 | 7 | -10.8 | -2.35 | -0.954 | -14.2 | -5.03 | -11.7 | -1.33 | -8.06 | -7.66
CNNCc1ccc(C(=O)NC(C)C)cc1 [Procarbazine] (drug 10000 nM) | 5.75 | -8.64 | 3.29 | -6.73 | -0.151 | 18.8 | -4.74 | 0.22 | 3.72 | -15.7 | -26.1 | -2.96 | -9.69 | -8.18 | 1.35
CC(C)n1nc(-c2ccc3oc(N)nc3c2)c2c(N)ncnc21 [INK128] (drug 1000 nM) | 52.7 | 66.7 | 46.4 | 36.7 | 62.9 | 36.7 | 66 | 58.8 | 72.6 | 70.3 | 52.4 | 35.9 | 44.1 | 61.2 | 51.9
COc1ccc(-c2ccc3c(N4CCOC[C@@H]4C)nc(N4CCOC[C@@H]4C)nc3n2)cc1CO [AZD8055] (drug 10000 nM) | 57.3 | 61 | 55.9 | 43.2 | 77.2 | 58.3 | 61 | 54.4 | 80.1 | 72.4 | 56.5 | 34.5 | 56.1 | 60 | 50.2
CCN(CC)CCNC(=O)c1c(C)[nH]c(/C=C2\C(=O)Nc3ccc(F)cc32)c1C (drug 1000 nM) | -5.76 | -6.3 | 13.4 | -3.86 | 33.8 | 3.79 | 2.39 | 6.06 | 13.8 | -3.88 | -9.09 | 7.78 | 1.68 | 5.31 | -5.7
Cn1cncc1[C@@](N)(c1ccc(Cl)cc1)c1ccc2c(c1)c(-c1cccc(Cl)c1)cc(=O)n2C [Tipifarnib  (Zarnestra)] (drug 10000 nM) | 57.6 | 28.4 | 14.2 | 42.6 | 77.3 | 44.6 | 57.7 | 55.8 | 85.4 | 64.4 | 77.7 | 42 | 78.5 | 51 | 50.5
O=C(Nc1ccncc1)C(=O)c1cn(Cc2ccc(Cl)cc2)c2ccccc12 [Indibulin] (drug 10000 nM) | 10.6 | 2.62 | 12 | 7.67 | 28.2 | 4.46 | 11.1 | 13 | 7.16 | 36.4 | 33.7 | -9.03 | 8.07 | 9.44 | -3.66
CCN(CC)CCCC(C)Nc1ccnc2cc(Cl)ccc12 (stereo not given) [Chloroquine] (drug 990000 nM) | 0.712 | -0.514 | -3.72 | -6.4 | -13.3 | -12.2 | 6.98 | 3.21 | 19 | -2.81 | 0.449 | -1.25 | 7.83 | -2.67 | -3.36
